Columns and labels:
[1] = molecular target: recombinant human PFKFB4 protein (Homo sapiens, UniProt Q16877); test: ADP-Glo kinase assay of recombinant PFKFB4; type: biochemical; conditions: decrease in luminescence relative to DMSO (FIG. 1)
Method: The efficacy of the compound Formula (I) in inhibiting the activity of the PFKFB4 enzyme was tested by examination of the effect of Formula (I) on the kinase activity of recombinant PFKFB4 enzyme in the ADP-Glo assay.
The efficacy of Formula (I) in inhibition of the kinase activity of the PFKFB4 enzyme was examined by exposing recombinant human PFKFB4 protein to Formula (I) in the ADP-Glo kinase assay (Promega) which measures ADP formed through a kinase reaction. Briefly, recombinant protein, ATP, substrate and Formula (I) were incubated together for the kinase reaction followed by the addition of ADP-Glo reagent, used to terminate the kinase reaction. Lastly, a kinase detection reagent was added to convert the newly formed ADP to ATP which was measured by a luciferase reaction. Data are shown in FIG. 1 as the decrease in luminescence caused by Formula (I) relative to DMSO. Decrease in Cell Proliferation by Formula (I) (Also Referred to as FBR1-12): […]

[2] = system: human cancer cell lines; test: Cell proliferation, viable cell counts by Trypan blue exclusion; type: cell-based; conditions: increasing concentrations; cell counts relative to DMSO, representative counts at 48 hours (FIG. 2); compared with SMPN
Method: The effect of increasing concentrations of Formula (I) on the proliferation of human cancer cells was examined in vitro. […] Data in FIG. 2 are shown as the decrease in cell counts relative to the DMSO (vehicle) control.
Method: Cells were plated in 24 well plates and exposed to increasing concentrations of Formula (I). DMSO was used as a vehicle. After 24, 48 and 72 hours of exposure, cells were detached, and viable cells were counted by Trypan blue exclusion (representative counts at 48 hours shown).

[3] = system: cancer cells; test: Intracellular fructose-2,6-bisphosphate (F26BP) in cells; type: cell-based; conditions: increasing concentrations; two independently run experiments (FIG. 3A, 3B)
Method: The ability of Formula (I) to inhibit the activity of the PFKFB4 enzyme in cells was measured by examining the effect of the inhibitor on the levels of the product of the PFKFB4 enzyme, fructose-2,6-bisphosphate (F26BP). […] Data in FIG. 3 are shown as the concentration of intracellular F26BP normalized to cellular protein concentration.
In order to measure F26BP, cells were exposed to increasing concentrations of Formula (I) and were harvested, washed with PBS, lysed in NaOH/Tris acetate by heating at 80° C. and lysates neutralized to pH 7.2. F26BP content was measured using a coupled enzyme reaction following the method of Van Schaftingen (VAN SCHAFTINGEN et al, “A kinetic study of pyrophosphate: fructose-6-phosphate phosphotransferase from potato tubers. Application to a microassay of fructose 2,6-bisphosphate” Eur J Biochem. (1982) Vol. 129, No. 1, pp. 191-195), which is herein incorporated by reference in its entirety. The F26BP concentration was normalized to total cellular protein measured by the bicinchoninic acid assay (BCA, Thermo Scientific).

[4] = system: cancer cells; test: Glycolysis in cells, 3H2O production from 5-[3H]glucose; type: cell-based; conditions: two independently run experiments (FIG. 4A, 4B)
From the text: The effect of Formula (I) on the glycolytic pathway was examined to determine the ability of this inhibitor to decrease glycolysis secondary to its effect on PFKFB4-driven F26BP production. PFKFB4 produces F26BP which activates a rate-limiting enzyme of the glycolytic pathway, […] (PFK-1). […] Data in FIG. 4A and FIG. 4B are shown as the production of ^3H2O by Formula (I) relative to DMSO and normalized to protein concentration.
Method: To examine glycolysis, cells growing in 6-well plates were incubated in 500 μl of complete medium containing 1 μCi of […] per well for 60 min in 5% CO2 at 37° C. The medium was then collected and centrifuged to pellet any suspended cells. […] The amounts of ^3H2O that had diffused into the surrounding H2O was measured on a Tri-Carb 2910 liquid scintillation analyzer (Perkin Elmer) and compared with ^3H2O and 5-[^3H]glucose standards. Protein concentration was determined using the BCA assay and counts were normalized to protein concentration (previously described in CHESNEY et al., “Fructose-2,6-bisphosphate synthesis by 6-phosphofructo-2-kinase/fructose-2,6-bisphosphatase 4 (PFKFB4) is required for the glycolytic response to hypoxia and tumor growth” Oncotarget (2014) Vol. 5, No. 16, pp. 6670-6686, which is herein incorporated by reference in its entirety).

[5] = system: cancer cells; test: Intracellular ATP, bioluminescence assay; type: cell-based; conditions: two independently run experiments (FIG. 5A, 5B)
Method: The effect of Formula (I) on the production of ATP was examined as a measure of its effect on energy production by the glycolytic pathway.
To measure ATP, cells were washed (while still adherent) with cold PBS, lysed with Passive Lysis Buffer (Molecular Probes, Invitrogen) added directly to the plates, and immediately harvested by scraping. The lysates were flash frozen (to −80° C.) and thawed (to 37° C.) once to accomplish complete lysis and then centrifuged to clear the lysates. Intracellular ATP levels were determined using a bioluminescence assay (Molecular Probes), utilizing luciferase and its substrate, D-luciferin and ATP values were calculated using an ATP standard curve. The ATP concentration was normalized to protein concentration that was estimated using the BCA assay.

[6] = system: cancer cells; test: Anchorage independent growth as colonies in soft agar; type: cell-based; conditions: increasing concentrations; compared with DMSO (FIG. 6)
Method: We examined the ability of Formula (I) to inhibit the anchorage independent growth of cancer cells in vitro as colonies in soft agar. […] Representative images are shown in FIG. 6A, and colonies formed were enumerated. The number of colonies formed in the presence of Formula (I) was compared with those formed in the presence of the vehicle, DMSO (FIG. 6B).
Cancer cells were plated in soft agar and the effects of increasing concentrations of Formula (I) on anchorage independent growth was examined Briefly, a feeder layer of 0.6% agarose (Agar Noble, Becton Dickinson) in RPMI with 10% fetal bovine serum was plated in 6 cm plates containing vehicle (DMSO) or increasing concentrations of Formula (I). 1×10^4 cells were re-suspended in 0.3% agarose in RPMI/10% serum containing DMSO or increasing concentrations of Formula (I) and plated on top of the feeder layer. Cells were allowed to grow at 37° C. in 5% CO2 and agarose-containing media with DMSO+/−Formula (I) was replenished every 5 days until colonies became visible. Colonies were stained with MTT [3-(4,5-dimethylthiazol-2-yl)-2,5-diphenyl tetrazolium bromide] and counted in four random 1 cm^2 areas per plate under 40× magnification and enumerated.

[7] = system: Lewis lung carcinoma cells; test: Tumor growth in vivo, syngeneic Lewis lung carcinoma model; set-up: species or system C57BL/6 mice; conditions: daily oral 40 mg/kg in DMSO, 9 days, established tumors ~150-200 mg (FIG. 8)
From the text: The efficacy of Formula (I) in decreasing the growth of tumors in vivo was examined Mice were implanted with Lewis lung carcinoma cells and after tumors were noted, dosed daily with DMSO±Formula (I) by gavage and tumor growth followed. […] Data shown as mean±SEM for each timepoint. C57BL/6 mice (Charles River) were implanted with 1×10^6 Lewis lung carcinoma cells subcutaneously and, after tumors developed, were followed by caliper measurements daily to quantify tumor mass using the formula: tumor mass=(length×width^2)/2. When tumors were ˜150-200 mg, mice were randomized to daily oral DMSO±Formula (I) (n=10/group) at 40 mg/kg in 50 μL DMSO and tumor growth followed×9 days. (* signifies statistical significance)

[8] = system: subcutaneous Lewis lung carcinoma tumors; test: Tumor glucose uptake in vivo by FDG-PET; set-up: species or system C57BL/6 mice; conditions: 40 mg/kg PO x1, PET 60 minutes after dose, versus vehicle (FIG. 9)
Method: The efficacy of Formula (I) to decrease tumor glucose uptake was examined by positron emission tomography (PET) following ^18F-fluoro-2-deoxy-glucose (FDG) injection. […] Method: FDG-PET was conducted on tumor-bearing mice to determine acute effects of Formula (I) on glucose uptake. C57BL/6 mice (Charles River) with subcutaneous Lewis lung carcinoma tumors were injected intraperitoneally with 100 μCi of ^18F-fluoro-2-deoxy-glucose under isoflurane anesthesia and subjected to a 15-minute static scan 45 minutes after tracer injection at baseline. Twenty-four hours later, the same animals were administered vehicle (DMSO) or Formula (I) (in DMSO, 40 mg/kg, PO×1), and, after 60 minutes, FDG uptake determined by PET scan. Tumor/cerebellum ROI (regions of interest) were quantified, representative sagittal cuts from mice are shown with arrows showing the tumors on the animals. (* signifies statistical significance).

recombinant human PFKFB4 protein, sequence (Q16877 whole entry): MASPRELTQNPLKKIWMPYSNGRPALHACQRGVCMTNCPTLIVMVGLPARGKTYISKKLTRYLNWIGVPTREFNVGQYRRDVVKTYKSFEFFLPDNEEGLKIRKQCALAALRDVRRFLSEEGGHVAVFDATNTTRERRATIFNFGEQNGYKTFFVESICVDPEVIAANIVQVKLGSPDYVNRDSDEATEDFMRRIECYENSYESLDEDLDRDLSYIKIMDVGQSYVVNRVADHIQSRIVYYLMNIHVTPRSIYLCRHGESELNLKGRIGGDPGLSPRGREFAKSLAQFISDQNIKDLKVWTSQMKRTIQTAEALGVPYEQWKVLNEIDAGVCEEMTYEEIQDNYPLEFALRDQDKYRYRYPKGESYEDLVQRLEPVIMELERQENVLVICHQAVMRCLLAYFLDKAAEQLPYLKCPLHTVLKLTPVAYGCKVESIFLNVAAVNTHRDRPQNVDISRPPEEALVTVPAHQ

COc1cccc2c(NCCCCCNC(=O)C(F)(F)F)ccnc12 [Formula (I), 2,2,2-trifluoro-N-(5-((8-methoxyquinolin-4-yl)amino)pentyl)acetamide]
kinase activity of the PFKFB4 enzyme [1]: inhibited the kinase activity of the PFKFB4 enzyme | proliferation of human cancer cell lines [2]: decreases the proliferation of human cancer cell lines in vitro with higher potency than SMPN | intracellular F26BP normalized to cellular protein concentration [3]: dose-dependent decrease in F26BP in cancer cells | glycolysis, production of 3H2O relative to DMSO normalized to protein concentration [4]: dose-dependent decrease in glycolysis in cancer cells | production of ATP normalized to protein concentration [5]: dose-dependent decrease in the production of ATP by cancer cells | anchorage independent growth, soft agar colonies [6]: inhibited the growth of cancer cells as soft agar colonies | tumor growth (tumor mass) [7]: decreased established tumor growth in a syngeneic mouse tumor model | tumor FDG uptake (tumor/cerebellum ROI) [8]: caused a decrease in tumor FDG uptake compared with vehicle

From patent publication US11708330B2, “Compounds, compositions, methods for treating diseases, and methods for preparing compounds” (UNIVERSITY OF LOUISVILLE RESEARCH FOUNDATION, INC., priority 2017, dated 2023)
